Test results published in PMC11509018, “Evaluation of the Role of Tanshinone I in an In Vitro System of Charcot-Marie-Tooth Disease Type 2N” (International Journal of Molecular Sciences, 2024).
Where a name gives a salt, the structure may show the parent alone.

Experiments:
[1] = biological target: T1, AlaRS^R329H (Homo sapiens, UniProt P49588, R329H); assay: Thermal shift assay (TSA); format: binding; settings: positive hit = shift of more than 2.5 °C
T1 construct: made in house; host or cells: E. coli BL21 (DE3), pET-21a
T1 sequence (P49588 1-968 R329H): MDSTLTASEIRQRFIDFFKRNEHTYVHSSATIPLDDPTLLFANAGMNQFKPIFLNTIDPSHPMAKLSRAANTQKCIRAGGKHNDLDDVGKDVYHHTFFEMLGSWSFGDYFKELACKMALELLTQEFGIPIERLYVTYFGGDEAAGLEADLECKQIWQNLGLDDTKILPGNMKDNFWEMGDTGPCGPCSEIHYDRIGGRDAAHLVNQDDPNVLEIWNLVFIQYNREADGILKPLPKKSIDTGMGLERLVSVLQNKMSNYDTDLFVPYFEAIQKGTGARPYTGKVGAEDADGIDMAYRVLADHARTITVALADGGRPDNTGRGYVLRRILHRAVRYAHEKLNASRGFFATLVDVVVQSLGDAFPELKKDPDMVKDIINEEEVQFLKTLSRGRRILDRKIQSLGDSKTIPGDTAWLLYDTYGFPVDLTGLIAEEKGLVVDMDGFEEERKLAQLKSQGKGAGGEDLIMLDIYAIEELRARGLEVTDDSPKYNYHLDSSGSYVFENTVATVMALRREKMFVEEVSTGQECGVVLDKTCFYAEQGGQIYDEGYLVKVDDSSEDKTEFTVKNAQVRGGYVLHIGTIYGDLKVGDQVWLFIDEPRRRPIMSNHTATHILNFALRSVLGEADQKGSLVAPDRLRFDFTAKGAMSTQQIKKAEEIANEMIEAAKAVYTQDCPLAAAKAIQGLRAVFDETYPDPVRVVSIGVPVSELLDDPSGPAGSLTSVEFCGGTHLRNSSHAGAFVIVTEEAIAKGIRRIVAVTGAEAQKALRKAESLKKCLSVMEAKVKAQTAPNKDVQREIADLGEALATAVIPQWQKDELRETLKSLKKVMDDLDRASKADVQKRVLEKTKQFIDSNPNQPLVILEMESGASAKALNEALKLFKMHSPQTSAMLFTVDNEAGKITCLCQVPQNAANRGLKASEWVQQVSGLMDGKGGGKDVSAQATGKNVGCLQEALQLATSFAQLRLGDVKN
Description: In this assay, with increasing temperatures, the protein undergoes thermal unfolding, exposing its hydrophobic core. Subsequently, a fluorescent dye binds to these hydrophobic regions, becoming unquenched. Fluorescence is closely monitored, and the midpoint of the protein unfolding transition is designated as the Tm. Ligand binding frequently influences protein thermal stability during denaturation. Thus, the ligand binding affinity of any potential inhibitor can be gauged by evaluating the shift in the Tm. In this experiment, we screened a library of 2000 small molecules (Table S1) and classified as positive hits those that caused a shift in the Tm of the mutant protein of more than 2.5 °C. From the TSA, we identified four small molecules that met this criterion (Figure 2A, Table 1). Specifically, Atazanavir sulfate caused a shift of 4.0 °C, Tanshinone I a shift of 3.1 °C, Hederacolchiside A1 a shift of 4.3 °C, and Hexylresorcinol a shift of 5.5 °C (Figure 2B). To assess the impact of small molecules on the thermal stability of mutant proteins, thermal shift assays were performed using a […] (Applied Biosystems, Waltham, MA, USA) with the Protein Thermal Shift™ Kit dye (Thermo Fisher Scientific, Waltham, MA, USA). Each well of a 96-well Optical Reaction Plate (Applied Biosystems) contained 14 μL of thermal shift buffer, 2 μL of diluted thermal shift dye (8×), 2 μL of a 1 mM small molecule solution, and 2 μL of 1 mg/mL protein. Plates were incubated at 4 °C for 1 h before being heated from 25 °C to 95 °C at 1 °C/min. The fluorescence signal of SYPRO orange (excitation/emission: 490/530 nm) was recorded at 30 s intervals to monitor protein denaturation. The melting temperature (Tm), defined as the midpoint of the unfolding transition, was determined from the fluorescence–temperature curve. ΔTm was calculated as the difference in Tm between AlaRS^R329H treated with compounds and the control. Experiments were conducted in triplicate for accuracy. The experiment was repeated three times.

[2] = biological target: T1, AlaRS^R329H; assay: Biolayer interferometry (BLI); format: binding; settings: immobilized AlaRS^R329H, 40, 20, 10, 5, 2.5 μM, mean ± SD, triplicate
Description: To quantitatively analyze the binding affinity between the small molecules and the CMT mutant proteins, we performed BLI analysis on the selected candidates. BLI offers direct measurements of drug–protein binding kinetics, including key parameters such as the equilibrium dissociation constant (KD), association rate (Kon), and dissociation rate (Koff). This analysis provided key insights into the binding affinities of the four small molecules with the mutant protein AlaRS^R329H. […] To further quantify the binding of small molecules to mutant proteins, binding experiments with AlaRS^R329H proteins and small molecules were conducted using an Octet R8 system (ForteBio, Fremont, CA, USA). Purified His-tagged AlaRS^R329H proteins (500 μg/mL) were captured on Ni-NTA biosensors (ForteBio, Fremont, CA, USA), achieving a saturation response of 4–5 nm after 300 s. The biosensors were then transferred to Octet buffer (PBS with 0.01% Tween 20) for 180 s to remove loosely bound, nonspecific proteins and to establish a stable baseline. Following this, the sensors were immersed in diluted Tanshinone I (2.5–100 μM in assay buffer) for 120 s to record the association signal, and then transferred back into Octet buffer to monitor the dissociation signal for 120 s. Reference wells containing buffer instead of Tanshinone I were included to correct for baseline shifts. Additionally, a parallel set of Ni-NTA sensors in buffer served as negative reference controls to account for nonspecific binding of the compounds to the biosensor surface. The data were processed using a double reference subtraction protocol to eliminate nonspecific signals, background noise, and signal drifts caused by biosensor variability. All assays were performed in 96-well black plates with a total volume of 200 μL per well at 30 °C. Data analysis, including correction and curve fitting, was carried out using Octet® Analysis Studio 12.2.2.26. The experiment was repeated three times.

[3] = biological target: T1, AlaRS^R329H; assay: ATP consumption assay (enzyme inhibition); format: biochemical; settings: 1 μM AlaRS^R329H at 20 μM compounds; vs DMSO control
Procedure: We further investigated the effects of the four small molecules on the enzymatic activity of the AlaRS^R329H protein using an ATP consumption assay. All four compounds affected enzymatic activity to varying degrees. […] The ATP consumption assay was used to evaluate the enzymatic inhibitory activity of the compounds. A 30 μL reaction mixture, containing 1 μM AlaRS mutants, 25 μM ATP, 50 μM L-alanine, 30 mM HEPES (pH 7.5), 150 mM NaCl, 30 mM KCl, 40 mM MgCl2, 0.1% BSA, and varying concentrations of Tanshinone I, was incubated at room temperature for 15 min. After incubation, 10 μL of the mixture was transferred to a 384-well microplate, and AlaRS mutant activity was measured by adding 10 μL of the ATP Assay Kit (#S0026, Beyotime, Shanghai, China). Luminescence was recorded using a Synergy HTX multimode microplate reader (BioTek Inc., Winooski, VT, USA). The inhibitory rate was calculated from three independent assays to ensure the accurate assessment of Tanshinone I’s inhibitory activity. The experiment was repeated three times.

[4] = biological target: T1, AlaRS^R329H; assay: Proteolytic digestion assay (trypsin, SDS-PAGE); settings: 3 h
Procedure: To delve deeper into the impact of selected small molecules on the structural conformation of AlaRS^R329H proteins, a series of proteolysis experiments were conducted. The small molecules were incubated with AlaRS^R329H proteins at room temperature for three hours, followed by SDS-PAGE analysis to evaluate their effects on the distribution of the digestion fragments. […] The AlaRS^R329H proteins (in the presence and absence of Atazanavir sulfate, Tanshinone I, Hederacolchiside A1, and Hexylresorcinol) were incubated with trypsin at different concentrations for 3 h before the reactions were quenched, and the products were separated by SDS-PAGE.

Row | ΔTm (shift between the Tm values of AlaRS^R329H with and without compounds) [1] | Kd [2] | Relative Activity (relative enzyme activity of the first step) [3] | Structure (SMILES) | Effect on distribution of digestion fragments / conformation [4]
1 | 4.3 °C | 10.1 ± 0.5 µM | 69.6% | C[C@@H]1O[C@@H](O[C@H]2[C@H](O[C@H]3CC[C@]4(C)[C@H]5CC=C6[C@@H]7CC(C)(C)CC[C@]7(C(=O)O)CC[C@@]6(C)[C@]5(C)CC[C@H]4C3(C)C)OC[C@H](O[C@@H]3O[C@H](CO)[C@@H](O)[C@H](O)[C@H]3O)[C@@H]2O)[C@H](O)[C@H](O)[C@H]1O [Hederacolchiside A1] | slight conformational change
2 | – | 26.3 ± 9.9 µM | 79.8% | CCCCCCc1ccc(O)cc1O [Hexylresorcinol, reference compound] | minimal effects on the distribution of digestion fragments
3 | 4.0 °C | 28.6 ± 9.9 µM | 96.8% | COC(=O)N[C@H](C(=O)N[C@@H](Cc1ccccc1)[C@@H](O)CN(Cc1ccc(-c2ccccn2)cc1)NC(=O)[C@@H](NC(=O)OC)C(C)(C)C)C(C)(C)C [Atazanavir sulfate, reference compound] | minimal effects on the distribution of digestion fragments
